From patent US10765114B2, “4-amino-6-(pyridyl and 2-substitutedphenyl)-picolinates and 6-amino-2-(pyridyl and 2-substitutedphenyl)-pyrimidine-4-carboxylates and their use as herbicides” (Dow AgroSciences LLC, priority 2013, dated 2020)
Where two headings read alike, the source gives them in different places.

Assays:
[1] = system: Key Broadleaf Weed and Crop Species; experiment: Post-Emergent Test II (Table 5); format: in vivo; conditions: post-emergence, 336 h; for pest or weed control at 70 g/ha: application rate 70 (kg ai/ha; footnote: g ai/ha); for pest or weed control at 140 g/ha: application rate 140 (kg ai/ha; footnote: g ai/ha)
How it was run: (§1)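 Plants grown in a greenhouse (~15 h photoperiod, 23-29° C day) to first or second true leaf stage were sprayed post-emergence at 187 L/ha with compound in acetone/DMSO-based aqueous spray containing crop oil concentrate and surfactant, applied at a high rate plus ½× to 1/16× serial rates. Injury was scored visually 14 days later, 0-100% versus untreated plants.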

[2] = system: Key Grass and Sedge Weeds as well as Grass Crops; experiment: Post-Emergent Test II (Table 6); format: in vivo; conditions: post-emergence, 336 h, 14 days after application; for pest or weed control at 70 g/ha: 70 g ai/ha; for pest or weed control at 140 g/ha: 140 g ai/ha
How it was run: as §1

[3] = Abutilon theophrasti, ABUTH: velvetleaf (Abutilon theophrasti), read-out: Visual Growth Reduction (%) 14 Days After Application ABUTH
[4] = Amaranthus retroflexus, AMARE: redroot pigweed (Amaranthus retroflexus), read-out: Visual Growth Reduction (%) 14 Days After Application AMARE
[5] = Brassica napus, BRSSS: oilseed rape, canola (Brassica napus), read-out: Visual Growth Reduction (%) 14 Days After Application BRSSS
[6] = Chenopodium album, CHEAL: lambsquarters (Chenopodium album), read-out: Visual Growth Reduction (%) 14 Days After Application CHEAL
[7] = Euphorbia heterophylla, EPHHL: wild poinsettia (Euphorbia heterophylla), read-out: Visual Growth Reduction (%) 14 Days After Application EPHHL
[8] = Helianthus annuus, HELAN: sunflower (Helianthus annuus), read-out: Visual Growth Reduction (%) 14 Days After Application HELAN
[9] = Viola tricolor, VIOTR: wild pansy (Viola tricolor), read-out: Visual Growth Reduction (%) 14 Days After Application VIOTR
[10] = CYPSS, read-out: Visual Growth Reduction (%) 14 Days After Application CYPSS
[11] = DIGSA: crabgrass (Digitaria sanguinalis), read-out: Visual Growth Reduction (%) 14 Days After Application DIGSA
[12] = ECHSS, read-out: Visual Growth Reduction (%) 14 Days After Application ECHSS
[13] = ORYSS (crop), read-out: Visual Growth Reduction (%) 14 Days After Application ORYSS
[14] = SETFA: giant foxtail (Setaria faberi), read-out: Visual Growth Reduction (%) 14 Days After Application SETFA
[15] = SORVU: grain sorghum (Sorghum vulgare), read-out: Visual Growth Reduction (%) 14 Days After Application SORVU
[16] = TRZSS (crop), read-out: Visual Growth Reduction (%) 14 Days After Application TRZSS
[17] = ZEAMX: maize, corn (Zea mays), read-out: Visual Growth Reduction (%) 14 Days After Application ZEAMX

| SMILES | pest or weed control at 70 g/ha [1, 3] | pest or weed control at 140 g/ha [1, 3] | pest or weed control at 70 g/ha [1, 4] | pest or weed control at 140 g/ha [1, 4] | pest or weed control at 70 g/ha [1, 5] | pest or weed control at 140 g/ha [1, 5] | pest or weed control at 70 g/ha [1, 6] | pest or weed control at 140 g/ha [1, 6] | pest or weed control at 70 g/ha [1, 7] | pest or weed control at 140 g/ha [1, 7] | pest or weed control at 70 g/ha [1, 8] | pest or weed control at 140 g/ha [1, 8] | pest or weed control at 70 g/ha [1, 9] | pest or weed control at 140 g/ha [1, 9] | pest or weed control at 70 g/ha [2, 10] | pest or weed control at 140 g/ha [2, 10] | pest or weed control at 70 g/ha [2, 11] | pest or weed control at 140 g/ha [2, 11] | pest or weed control at 70 g/ha [2, 12] | pest or weed control at 140 g/ha [2, 12] | also measured |
| --- | --- | --- | --- | --- | --- | --- | --- | --- | --- | --- | --- | --- | --- | --- | --- | --- | --- | --- | --- | --- | --- |
| Nc1cc(-c2ccc(Cl)c(F)c2CO)nc(C(=O)O)c1Cl [Compound 11, 4-Amino-3-chloro-6-(4-chloro-3-fluoro-2-(hydroxymethyl)phenyl)picolinic acid] | 0 to 29% | 0 to 29% | 0 to 29% | 0 to 29% | 0 to 29% | 0 to 29% | 0 to 29% | 75 to 84% | 0 to 29% | 0 to 29% | 0 to 29% | 0 to 29% | 0 to 29% | 0 to 29% | 0 to 29% | 0 to 29% | 0 to 29% | 0 to 29% | 0 to 29% | 0 to 29% | pest or weed control at 70 g/ha [2, 13]: 0 to 29%; pest or weed control at 140 g/ha [2, 13]: 0 to 29%; pest or weed control at 70 g/ha [2, 14]: 0 to 29%; pest or weed control at 140 g/ha [2, 14]: 0 to 29%; pest or weed control at 70 g/ha [2, 15]: 0 to 29%; pest or weed control at 140 g/ha [2, 15]: 0 to 29%; pest or weed control at 70 g/ha [2, 16]: 0 to 29%; pest or weed control at 140 g/ha [2, 16]: 0 to 29%; pest or weed control at 70 g/ha [2, 17]: 0 to 29%; pest or weed control at 140 g/ha [2, 17]: 0 to 29% |
| COC(=O)c1nc(-c2ccc(Cl)nc2F)cc(N)c1Cl [Compound 17, methyl 4-amino-5,6′-dichloro-2′-fluoro-[2,3′-bipyridine]-6-carboxylate] | 95 to 100% | 95 to 100% | 95 to 100% | 95 to 100% | 0 to 29% | 30 to 44% | 95 to 100% | 95 to 100% | 0 to 29% | 45 to 59% | 60 to 74% | 75 to 84% | 60 to 74% | 60 to 74% | 60 to 74% | 75 to 84% | 0 to 29% | 0 to 29% | 60 to 74% | 85 to 94% | pest or weed control at 70 g/ha [2, 13]: 0 to 29%; pest or weed control at 140 g/ha [2, 13]: 0 to 29%; pest or weed control at 70 g/ha [2, 14]: 0 to 29%; pest or weed control at 140 g/ha [2, 14]: 0 to 29%; pest or weed control at 70 g/ha [2, 15]: 0 to 29%; pest or weed control at 140 g/ha [2, 15]: 30 to 44%; pest or weed control at 70 g/ha [2, 16]: 0 to 29%; pest or weed control at 140 g/ha [2, 16]: 0 to 29%; pest or weed control at 70 g/ha [2, 17]: 0 to 29%; pest or weed control at 140 g/ha [2, 17]: 30 to 44% |
